Data as given in patent US8192962B2, “Processes for detecting toxic substances” (Daikin Industries, Ltd., priority 2001, dated 2012).

System: Transport facilitation protein genes
Test: DNA chip mRNA expression in yeast, transport facilitation protein genes (Table 5)
Type: cell-based, Saccharomyces cerevisiae S288C
Summary of the method: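 In this screen, yeast in logarithmic growth are challenged for two hours with a toxic substance at a non-lethal inhibitory concentration. Their mRNA, converted to Cy3- or Cy5-labeled cDNA, hybridizes at 65° C. to a chip spanning every yeast gene, and expression is expressed as a ratio to untreated cells.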

Measured: The level of expressed mRNA in the presence of chemical substance/The level of expressed mRNA in the absence of chemical substance

COc1cc(CNC(=O)CCCCC=CC(C)C)ccc1O [(12), 8-methyl-N-vanillyl-6-nonenamide]
1.4: yeast gene YHL035C | yeast gene YHR175W
1.0: yeast gene YHR092C | yeast gene YIL056W | yeast gene YJR077C | yeast gene YKL016C | yeast gene YKR067W | yeast gene YLR081W | yeast gene YNR072W | yeast gene YOL163W | yeast gene YOR332W
1.1: yeast gene YJL219W | yeast gene YKL146W | yeast gene YOR035C | yeast gene YOR316C
1.3: yeast gene YLL028W
0.9: yeast gene YHR094C | yeast gene YIL006W | yeast gene YIL022W | yeast gene YIL088C | yeast gene YJR106W | yeast gene YLR348C | yeast gene YOL119C | yeast gene YOL156W | yeast gene YOR130C | yeast gene YPL265W
0.7: yeast gene YHR026W | yeast gene YLL055W | yeast gene YMR162C | yeast gene YMR203W | yeast gene YNL259C | yeast gene YOR270C | yeast gene YOR348C | yeast gene YPR194C
1.7: yeast gene YNL055C
2.6: yeast gene YHL047C
4.0: yeast gene YOR153W
0.4: yeast gene YJL212C
1.5: yeast gene YKR039W
1.8: yeast gene YOR328W
1.2: yeast gene YLR378C
0.8: yeast gene YJR121W | yeast gene YMR011W | yeast gene YOR273C | yeast gene YPL134C | yeast gene YPL271W | yeast gene YPR124W
0.5: yeast gene YLR295C | yeast gene YML116W | yeast gene YPL036W | yeast gene YPR192W
2.0: yeast gene YHL040C
2.4: yeast gene YGR281W
1.6: yeast gene YJL034W
